{"source": "patent US20210290606A1", "about": "“METHOD TO PREVENT AND TREAT OSTEOARTHRITIS BY CALCIUM CHANNEL BLOCKERS, ANGIOTENSIN CONVERTING ENZYME INHIBITORS, AND ANGIOTENSIN RECEPTOR BLOCKERS” (priority 2018, published 2021)", "key": {"[1]": {"tested_on": "osteoarthritis", "conditions": "cited from earlier work; for clinical difference between the high potency narcotics and tramadol: human, in vivo"}, "[2]": {"tested_on": "osteoarthritis syndrome in both knees", "assay": "Composition applied to the skin in the region of one knee, other knee left untreated", "format": "in vivo, human", "conditions": "patient, topical application to skin in the region of one knee", "excerpt": "A patient is diagnosed with osteoarthritis syndrome in both knees.\nA patient is diagnosed with osteoarthritis syndrome in both knees. A composition comprising the ACE inhibitor enalapril is directly applied to the skin in the region of one knee while the other knee is left untreated.\nA patient is diagnosed with osteoarthritis syndrome in both knees. A composition comprising the angiotensin receptor blocker losartan is directly applied to the skin in the region of one knee while the other knee is left untreated."}, "[3]": {"tested_on": "osteoarthritis syndrome in both knees", "assay": "Composition given by intra-articular injection in one knee, other knee left untreated", "format": "in vivo, human", "conditions": "patient", "experimental": "A patient is diagnosed with osteoarthritis syndrome in both knees. […] A patient is diagnosed with osteoarthritis syndrome in both knees. A composition comprising the ACE inhibitor enalapril is administered by intra-articular injection in one knee while the other knee is left untreated. […] A patient is diagnosed with osteoarthritis syndrome in both knees. A composition comprising the angiotensin receptor blocker losartan is administered by intra-articular injection in one knee while the other knee is left untreated."}, "[4]": {"tested_on": "osteoarthritis", "conditions": "6 trials, 1501 participants, cited from earlier work"}}, "note": "Read-outs that look alike come from different tables or passages of the source.", "data": [{"compound": "CC(=O)Nc1ccc(O)cc1", "note": "[Tylenol]", "values": [{"measurement": "clinical effect", "setting": "[1]; meta-analysis of 74 randomized clinical trials, 58556 patients", "value": "did not have a clinically relevant effect"}]}, {"compound": "CCOC(=O)[C@H](CCc1ccccc1)N[C@@H](C)C(=O)N1CCC[C@H]1C(=O)O", "note": "[enalapril]", "values": [{"measurement": "symptoms of osteoarthritis syndrome, treated knee versus untreated knee", "setting": "[2]", "value": "reduced symptoms of osteoarthritis syndrome"}, {"measurement": "symptoms of osteoarthritis syndrome, treated knee versus untreated knee", "setting": "[3]", "value": "reduced symptoms of osteoarthritis syndrome"}]}, {"compound": "N[C@H]1C(O)O[C@H](CO)[C@@H](O)[C@@H]1O.O=S(=O)(O)O", "note": "(stereo partly shown) [glucosamine sulfate]", "values": [{"measurement": "pain and function", "setting": "[1]; industry-sponsored study of 604 patients", "value": "statistical significant reduction in pain and increase in function"}, {"measurement": "effect versus placebo", "setting": "[1]; meta-analysis of 25 randomized placebo controlled clinical trials, 3458 patients", "value": "failed to find any significant effects"}, {"measurement": "preventive effect on osteoarthritis", "setting": "[4]; after 3 years, benefit clinically irrelevant", "value": "small statistical effect"}, {"measurement": "preventive effect on osteoarthritis", "setting": "[4]; after one year", "value": "no preventive effect"}]}, {"compound": "CCCCc1nc(Cl)c(CO)n1Cc1ccc(-c2ccccc2-c2nn[nH]n2)cc1", "note": "[losartan]", "values": [{"measurement": "symptoms of osteoarthritis syndrome, treated knee versus untreated knee", "setting": "[2]", "value": "reduced symptoms of osteoarthritis syndrome"}, {"measurement": "symptoms of osteoarthritis syndrome, treated knee versus untreated knee", "setting": "[3]", "value": "reduced symptoms of osteoarthritis syndrome"}]}, {"compound": "CN1CC[C@]23c4c5ccc(O)c4O[C@H]2[C@@H](O)C=C[C@H]3[C@H]1C5", "note": "[morphine]", "values": [{"measurement": "clinical difference between the high potency narcotics and tramadol", "setting": "[1]", "value": "no clinically observable difference"}]}, {"compound": "COc1ccc2c3c1O[C@H]1C(=O)CC[C@@]4(O)[C@@H](C2)N(C)CC[C@]314", "note": "[oxycodone]", "values": [{"measurement": "clinical difference between the high potency narcotics and tramadol", "setting": "[1]", "value": "no clinically observable difference"}]}, {"compound": "COc1cccc(C2(O)CCCCC2CN(C)C)c1", "note": "(stereo not shown) [tramadol]", "values": [{"measurement": "clinical difference between the high potency narcotics and tramadol", "setting": "[1]", "value": "no clinically observable difference"}]}, {"compound": "chondroitin sulfate", "values": [{"measurement": "effect on pain and function", "setting": "[1]; meta-analysis of 20 randomized clinical studies, 3846 patients, called negligible", "value": 0.003, "unit": "%"}]}]}
